Assay results: patent US7161016B1, “Cannabimimetic lipid amides as useful medications” (University of Connecticut, priority 1998, dated 2007)
Like-named read-outs stand apart in the source and are kept apart here.

Tests used:
CB1 cannabinoid receptor = target: T1, CB1 cannabinoid receptor (Rattus norvegicus, UniProt P20272); test: CB1 receptor binding assay ([3H]CP-55,940 displacement), with and without PMSF; conditions: rat forebrain membranes
T1 construct: membranes were prepared from rat forebrain membranes; from tissue; host or cells: rat forebrain membranes
T1 sequence (P20272 whole entry): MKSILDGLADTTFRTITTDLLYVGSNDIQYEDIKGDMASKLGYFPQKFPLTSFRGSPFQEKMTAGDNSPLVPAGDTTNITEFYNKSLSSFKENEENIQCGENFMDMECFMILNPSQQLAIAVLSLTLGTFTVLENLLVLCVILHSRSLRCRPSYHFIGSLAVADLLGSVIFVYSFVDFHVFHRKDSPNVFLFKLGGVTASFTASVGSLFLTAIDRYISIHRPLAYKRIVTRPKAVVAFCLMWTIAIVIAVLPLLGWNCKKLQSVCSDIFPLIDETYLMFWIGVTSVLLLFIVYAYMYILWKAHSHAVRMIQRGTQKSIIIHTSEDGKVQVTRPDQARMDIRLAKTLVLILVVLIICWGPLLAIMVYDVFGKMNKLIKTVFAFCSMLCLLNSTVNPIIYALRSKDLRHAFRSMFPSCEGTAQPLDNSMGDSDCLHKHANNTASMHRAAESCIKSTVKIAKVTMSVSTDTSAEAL
Procedure: It is known that the enzymatic action of anandamide amidase can be moderated or prevented in vitro by the inclusion of phenylmethanesulfonyl fluoride (PMSF). PMSF functions as a nonselective protease inhibitor. Thus the ligand binding determinations for the CB1 receptor were carried out in the presence and absence of PMSF, to obtain both CB1 receptor binding affinity and a relative measure of the analog's metabolic stability. The binding affinities (Ki) are expressed in nanomoles (nM).
For the CB1 receptor binding studies, membranes were prepared from rat forebrain membranes according to the procedure of P. R. Dodd et al, A Rapid Method for Preparing Synaptosomes: Comparison with Alternative Procedures, Brain Res., 107–118 (1981). The binding of the novel analogues to the CB1 cannabinoid receptor was assessed as described in W. A. Devane et al, Determination and Characterization of a Cannabinoid Receptor in a Rat Brain, Mol. Pharmacol., 34, 605–613 (1988) and A. Charalambous et al, 5′-azido Δ^8-THC: A Novel Photoaffinity Label for the Cannabinoid Receptor, J. Med. Chem., 35, 3076–3079 (1992) with the following changes. The above articles are incorporated by reference herein.
Membranes, previously frozen at −80° C., were thawed on ice. To the stirred suspension was added three volumes of 25 mM Tris-HCl buffer, 5 mM MgCl2 and 1 mM EDTA, pH 7.4 (TME) containing 150 μM PMSF (made fresh in 2-propanol as a 100 mM stock). The suspension was incubated at 4° C., and after 15 min a second addition of PMSF stock brought the concentration to 300 μM PMSF; then the mixture was incubated for another 15 min. At the end of the second 15-min incubation, the membranes were pelleted and washed three times with TME to remove un-reacted PMSF.
(§1) The treated membranes Were subsequently used in the binding assay described below. Approximately 30 μg of PMSF-treated membranes were incubated in silanized 96-well microtiter plate with TME containing 0.1% essentially fatty acid-free bovine serum albumin (BSA), 0.8 nM [^3H] […] The samples were filtered using Packard Filtermate 196 and Whatman GF/C filterplates and washed with wash buffer (TME) containing 0.5% BSA. Radioactivity was detected using MicroScint 20 scintillation cocktail added directly to the dried filterplates, and the filterplates were counted using a Packard Instruments Top-Count. Nonspecific binding was assessed using 100 nM CP-55,940. Data collected from three independent experiments performed with duplicate determinations was normalized between 100% and 0% specific binding for [^3H] CP-55,940, determined using buffer and 100 nM CP-55,940. The normalized data was analyzed using a 4-parameter nonlinear logistic equation to yield IC50 values.
The CB1 ligand binding determinations in the absence of PMSF were performed in a similar manner to the above test, except without the use of PMSF.

CB2 receptor = target: T2, CB2 receptor (Mus musculus, UniProt P47936); test: CB2 receptor binding assay ([3H]CP-55,940 displacement), without PMSF; conditions: mouse spleen membranes
T2 construct: membranes were prepared from frozen mouse spleen; from tissue; host or cells: frozen mouse spleen membranes
T2 sequence (P47936 whole entry): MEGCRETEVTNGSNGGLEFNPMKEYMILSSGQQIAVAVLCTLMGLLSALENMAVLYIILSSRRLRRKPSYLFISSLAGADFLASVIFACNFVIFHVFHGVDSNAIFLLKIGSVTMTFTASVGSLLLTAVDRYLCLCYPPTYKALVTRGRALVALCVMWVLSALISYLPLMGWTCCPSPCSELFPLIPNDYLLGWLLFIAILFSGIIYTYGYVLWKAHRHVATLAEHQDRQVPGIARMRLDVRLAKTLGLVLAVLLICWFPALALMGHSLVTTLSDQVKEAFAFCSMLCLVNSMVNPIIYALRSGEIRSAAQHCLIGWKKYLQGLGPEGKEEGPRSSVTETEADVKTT
Procedure: as §1
For the CB2 receptor binding studies, membranes were prepared from frozen mouse spleen essentially according to the procedure of P. R. Dodd et al, A Rapid Method for Preparing Synaptosomes: Comparison with Alternative Procedures, Brain Res., 226, 107–118 (1981). Silanized centrifuge tubes were used throughout to minimize receptor loss due to adsorption. The CB2 binding assay was conducted in the same manner as for the CB1 binding assay except the assays were conducted without PMSF. […] The binding affinities (Ki) are expressed in nanomoles (nM).

[1] = PMSF-treated, read-out: KI (CB1), with PMSF
[2] = without PMSF (anandamide amidase active), read-out: KI (CB1), without PMSF

Row | SMILES | Ki (CB1 cannabinoid receptor; [1]) [µM] | Ki (CB1 cannabinoid receptor; [2]) [µM] | Ki (CB2 receptor) [µM]
1 | CCCCC/C=C\C/C=C\C/C=C\C/C=C\CCCC(=O)N[C@H](C)CN=[N+]=[N-] (racemic) [Analog 4, (R)-(+−)-Arachidonyl-1′-azido-2′-propylamide] | 0.0127 | 0.0256 | 1.23
2 | CCCCC/C=C\C/C=C\C/C=C\C/C=C\CCCC(=O)N[C@H](C)CF [Analog 1, N-(2-Fluoro-1R-(methylethyl)arachidonylamide)] | 0.00118 | 0.0101 | 0.785
3 | CCCCC/C=C\C/C=C\C/C=C\C/C=C\CCCC(=O)N[C@@H](C)CF [Analog 2] | 0.00091 | 0.0563 | 1.34
4 | CCCCCC=CCC=CCC=CCC=CCCCC(=O)NCCCl [Analog 5, N-(2-Chloroethyl)arachidonylamide] | 0.00529 | 3.4 | 0.195
5 | CCCCCC=CCC=CCC=CCC=CCCCC(=O)NCCCCl [Analog 6, N-(3-Chloropropyl)arachidonylamide] | 0.0256 | 0.387 | 0.193
6 | C=CCNC(=O)CCC/C=C\C/C=C\C/C=C\C/C=C\CCCCC [Analog 7, N-Allylarachidonylamide] | 0.00991 | 2.98 | 0.226
7 | C#CCNC(=O)CCC/C=C\C/C=C\C/C=C\C/C=C\CCCCC [Analog 8, N-Propargylarachidonylamide] | 0.0108 | 4.9 | 0.29
8 | CCCCCC=CCC=CCC=CCC=CCCCC(=O)NCC(F)(F)F [Analog 9, N-(2,2,2-Trifluroethyl) arachidonylamide] | 0.0362 | 2.38 | 0.718
9 | CCCCC/C=C\C/C=C\C/C=C\C/C=C\CCCCNC(=O)CCO [Analog 10, N-(3-Hydroxypropionyl)arachidonylamine] | 0.115 | 0.134 | 3.54
10 | CCCCC/C=C\C/C=C\C/C=C\C/C=C\CCCCNC(=O)COC(C)=O [Analog 11, N-(2-Acetoxyacetyl)arachidonylamine] | 0.421 | 0.419 | –
11 | CCCCC/C=C\C/C=C\C/C=C\C/C=C\CCCCNC(=O)CO [Analog 12] | 0.02 | 0.023 | –
